# Laboratory results: paper PMC12782889, “A GmNRF5a–GmCERK1–GmCAK1 module mediates chitin/chitosan‐triggered immune response in soybean” (Journal of Integrative Plant Biology, 2025)
# Tests used:
# [1] = tested on: GmNFR5a^ECDL153R; assay: MST binding to GmNFR5a^ECD mutant L153R; parameters: species or system soybean (Glycine max); conditions: ligand dp6
# Source text: (§1) The ectodomains of GmCERK1, GmNFR5a, and mutants were cloned into the yeast expression vector pPICZαA (Thermo Fisher Scientific, Shanghai, China) through the double digestion and ligation using the restriction endonuclease EcoRI/XbaI (NEB, Suzhou, China) and T4 ligase. Then, the linearized recombinant plasmid pPICZαA‐GmCERK1 and pPICZαA‐GmNFR5a were transformed into P. pastoris X‐33. The positive colonies were selected on YPDS medium (1% w/v yeast extract, 2% w/v peptone, 2% w/v glucose, 2% w/v agar, 100 μg/mL antibiotic Zeocin (Thermo Fisher Scientific)) plates and verified by direct DNA sequencing. Protein expression was carried out initially in BMGY media (100 mM potassium phosphate pH 6.0, 1.34% w/v YNB, 4 × 10^−5% w/v biotin, 1% v/v glycerol) at 28°C with shaking (180 rpm) until the OD600 reached 2.0–6.0. The cell pellet was transferred into BMMY medium (100 mM potassium phosphate pH 6.0, 1.34% w/v YNB, 4 × 10^−5% w/v biotin, 0.5% v/v methanol) and continuously supplied with the addition of 0.5% (v/v) methanol every day for 5 d. […]
# (§2) GmCERK1^ECD, GmNFR5a^ECD, and all mutants were labeled with a fluorescent dye using the Monolith Protein Labeling Kit RED‐NHS second Generation (MO‐L011). […] The data were analyzed and fitted by plotting ligand concentrations against bound fractions using the MO.Affinity Analysis v3.0.5 software. […]
# [2] = tested on: GmCERK1^ECDI137R; assay: MST binding to GmCERK1^ECD mutant I137R; parameters: species or system soybean (Glycine max); conditions: ligand dp6
# Source text: as §1, §2
# [3] = tested on: GmNFR5a^ECDF124R; assay: MST binding to GmNFR5a^ECD mutant F124R; parameters: species or system soybean (Glycine max); conditions: ligand dp6
# Source text: as §1, §2
# [4] = tested on: GmCERK1^ECDY109R; assay: MST binding to GmCERK1^ECD mutant Y109R; parameters: species or system soybean (Glycine max); conditions: ligand dp6
# Source text: as §1, §2
# [5] = biological target: T1, AtCERK1^ECD (Arabidopsis thaliana, UniProt A8R7E6); parameters: method as in Cao et al., 2014; conditions: isothermal titration calorimetry (ITC); ref Cao et al., 2014; read-out: K D for AtCERK1^ECD with CTOS; cited from earlier work
# T1 construct: ectodomain of AtCERK1 (aa25–224); made in house; host or cells: Pichia pastoris X-33
# T1 sequence (A8R7E6 25-224): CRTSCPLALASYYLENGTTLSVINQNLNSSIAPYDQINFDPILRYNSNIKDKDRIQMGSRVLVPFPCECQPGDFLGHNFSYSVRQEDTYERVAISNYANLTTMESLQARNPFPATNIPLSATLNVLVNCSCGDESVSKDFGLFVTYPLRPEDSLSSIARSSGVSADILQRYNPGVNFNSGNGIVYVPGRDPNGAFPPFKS
# [6] = tested on: Phytophthora sojae P6497; assay: P. sojae infection of pretreated soybean hairy roots (GFP control); format: in vivo, Phytophthora sojae on soybean (Glycine max); conditions: control hairy roots expressing GFP; 50 mg/L soak 12 h; 48 hpi; vs dH2O; P < 0.0001
# Source text: Soybean (cultivar Williams) seeds were surface sterilized and germinated as previously described ([Kereszt et al., 2007]). Soybean cotyledons were removed from […] seedlings grown in vermiculite. Cotyledons were harvested at Day 7 by gently twisting them off the hypocotyl. Only unblemished cotyledons were employed for all protocols. Individual cotyledons were surface sterilized by wiping with an alcohol swab soaked in 70% ethanol. The alcohol swab was wrung out slightly before use, so that it was wet but not dripping. […] Hairy roots were monitored for green fluorescence production over a period of 4 weeks. For silencing in hairy roots, the transcript levels of the targeted gene and its closest paralogs were measured in fluorescent green hairy roots using qRT‐PCR to assess silencing efficiency.
# For soybean etiolated hypocotyls inoculation assays, etiolated hypocotyls of soybean (cultivar Williams) were inoculated with P. sojae zoospore suspensions (100 zoospores). […] For soybean hairy‐root inoculation assays, transgenic hairy roots were soaked in CTOS/CSOS (50 mg/L) or mock (dH2O) for 12 h and then were infected with red fluorescent protein (RFP)‐labeled P. sojae strain P6497, and fluorescence was visualized in the infected area of soybean hairy root and the biomass of P. sojae was determined by qRT‐PCR at 48 hpi.
SMILES,interaction with GmNFR5a^ECDL153R [1],interaction with GmCERK1^ECDI137R [2],interaction with GmNFR5a^ECDF124R [3],interaction with GmCERK1^ECDY109R [4],Kd [5] [µM],soybean defense against P. sojae (pathogen biomass) [6]
"N[C@H]1[C@H](O[C@H]2[C@H](O)[C@@H](N)[C@H](O[C@H]3[C@H](O)[C@@H](N)[C@H](O[C@H]4[C@H](O)[C@@H](N)[C@H](O[C@H]5[C@H](O)[C@@H](N)[C@H](O[C@H]6[C@H](O)[C@@H](N)C(O)O[C@@H]6CO)O[C@@H]5CO)O[C@@H]4CO)O[C@@H]3CO)O[C@@H]2CO)O[C@H](CO)[C@@H](O)[C@@H]1O (stereo partly drawn) [CSOS (dp6), chitosan oligosaccharide]",cannot interact,cannot interact,cannot interact,cannot interact,–,–
"CC(=O)N[C@H]1[C@H](O[C@H]2[C@H](O)[C@@H](NC(C)=O)[C@H](O[C@H]3[C@H](O)[C@@H](NC(C)=O)C(O)O[C@@H]3CO)O[C@@H]2CO)O[C@H](CO)[C@@H](O[C@@H]2O[C@H](CO)[C@@H](O[C@@H]3O[C@H](CO)[C@@H](O[C@@H]4O[C@H](CO)[C@@H](O)[C@H](O)[C@H]4NC(C)=O)[C@H](O)[C@H]3NC(C)=O)[C@H](O)[C@H]2NC(C)=O)[C@@H]1O (stereo partly drawn) [CTOS (dp6), chitin oligosaccharide]",–,–,–,–,455,significantly bolstered
